How the values were obtained:
[1] = system: A53T a-syn oligomers; assay: Luciferase PCA of A53T a-syn oligomers; format: cell-based, human; conditions: for Effect on A53T a-syn oligomers: luciferase PCA, n=3
Description: (§1) Oligonucleotides encoding the specific peptides were synthesized and individually cloned into the pLJM1 nGFP lentiviral vector. HEK293T cells were infected with individual constructs, and cell viability was assessed using Cell Titer-Glo luminescent assay (Promega) at 72 h post infection.
(§2) Tet-off HEK293 cells stably expressing split luciferase-a-syn constructs and tet-off parent HEK293 cell lines were maintained in DMEM supplemented with 10% FBS and 1% pen/strep/glutamine. […] Cells were trypsinized from subconfluent culture and seeded in a 96-well plate at a density of 15,000 cells per well. Cells were incubated overnight at 37 °C in 5% CO2. Cells were transfected with GFP-peptide plasmids. After 6 h of incubation, 20 µL of cell medium was transferred to a black flat-bottomed 96-well plate. Fifty microliters of Working solution (Pierce Gaussia-Firefly Luciferase Dual Assay Kit, Thermo Scientific, 16181) were added into each well containing cell medium. Immediately after adding the reagent, samples were read using a luminometer with a 480 nm filter.

[2] = system: Parent HEK293 cells; assay: Cell Titer-Glo cell viability, parent cells; format: cell-based, human; conditions: for Cell viability: MG132 10 μM, 72 h; for cell viability effect of peptides: Supp Figure 1A;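 on cell viability effect of peptides: measured without MG132 proteasome inhibitor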
Description: as §1
(§3) Cells were trypsinized from subconfluent cultures as described earlier, suspended in culture media, and then seeded into triplicate wells of a 96-well plate (100 µl/well) at a density of 1.5 × 10^4 cells per well with standard culture conditions of 5% CO2 at 37 °C. Cells were infected with lentivirus expressing peptide at a MOI of 5 for 72 h or transfected with plasmid for 72 h. Cell Titer-Glo reagent was added to each well (30 µL), according to the manufacturer’s protocol and […].

[3] = system: Flag-CHMP2B; assay: Co-immunoprecipitation of Flag-CHMP2B with GFP-peptides; format: cell-based; conditions: n = 3
Description: (§4) HEK293T cells were co-transfected with Flag-tagged target protein, HA-tagged source protein, and GFP-tagged peptide or GFP. Cells were lysed 48 h after transfections with radioimmune precipitation assay buffer (50 mM Tris-HCl pH 7.4, 1% Nonidet P-40, 150 mM NaCl, 1 mM EDTA, 10 mM Na3VO4, 10 mM sodium pyrophosphate, 25 mM NaF, 1× protease inhibitor mixture (Sigma)) for 30 min at 4 °C and co-immunoprecipitated with Flag beads (Clontech). The resulting immunocomplexes were analyzed by immunoblot using the appropriate antibodies. Protein samples were separated using 4–20% Mini-PROTEAN Tris-glycine gels (Bio-Rad) transferred to PVDF membranes and blocked in 5% milk containing PBS-Tween-20 (0.1%) for 1 h. PVDF membranes were then incubated with specified primary antibodies followed by incubation with horseradish peroxidase-conjugated secondary antibodies (anti-mouse HRP-linked, Cell Signaling, catalog #7076, 1:5000; anti-rabbit HRP-linked, Cell Signaling, catalog #7074, 1:5000) and detected using enhanced chemiluminescence (GE Healthcare). HA antibodies were obtained from Santa Cruz (catalog #7392, 1:2000), GFP antibodies were purchased from Abcam (catalog #ab290, 1:2000), and Flag antibodies were purchased from Sigma (catalog #A8592, 1:1000).

[4] = system: A53T a-syn; assay: A53T a-syn protein level in HEK293 cells by immunoblot; format: cell-based, human
Description: Infected or transfected cells were scraped from six-well dishes and lysed with lysis buffer (50 mM Tris-HCl pH 7.4, 1% Nonidet P-40, 150 mM NaCl, 1 mM EDTA, 1× protease inhibitor mixture (Sigma)) for 30 min at 4 °C. The insoluble pellet was removed following a 10,000 rpm spin for 5 min at 4 °C. Lysates were analyzed by SDS-PAGE/immunoblot using 4–20% Mini-PROTEAN Tris-glycine gels (Bio-Rad), transferred to polyvinylidene fluoride (PVDF) membranes, and blocked in 5% milk containing PBS-Tween-20 (0.1%) for 1 h. PVDF membranes were then incubated with specified primary antibodies followed by incubation with horseradish peroxidase-conjugated secondary antibodies (anti-mouse HRP-linked, Cell Signaling, catalog #7076, 1:5000; anti-rabbit HRP-linked, Cell Signaling, catalog #7074, 1:5000) and detected using enhanced chemiluminescence (GE Healthcare). Anti-a-syn antibody (clone 42) was obtained from BD Biosciences (catalog #610787, 1:1000). Anti-LAMP1 antibody was obtained from Abcam (catalog #ab24170, 1:500). Anti-beta-actin antibody was obtained from Cell Signaling (13E5) (catalog #4970, 1:1000). Anti-CD63 antibody was obtained from R&D Systems (catalog #MAB50482-SP, 1:1000).

[5] = system: A53T a-syn expressing HEK293 cells; assay: Cell Titer-Glo cell viability, A53T a-syn expressing cells; format: cell-based, human; conditions: for cell viability effect of peptides: A53T a-syn, Supp Figure 1A; for Cell viability: A53T, MG132 10 μM, 72 h; for Effect of MIM motif peptides on cell viability in A53T a-syn expressing cells: Supp Figure 1H
Method in brief: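 HEK293 cells (1.5 × 10^4 per well, triplicate) were infected with peptide-expressing lentivirus at MOI 5 or transfected with plasmid for 72 h at 37 °C, 5% CO2. Viability was then measured with Cell Titer-Glo, […].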

[6] = system: WT a-syn expressing HEK293 cells; assay: Cell Titer-Glo cell viability, WT a-syn expressing cells; format: cell-based, human; conditions: WT alpha-synuclein; for Cell viability: MG132 10 μM, 72 h; for cell viability effect of peptides: Supp Figure 1A;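 on cell viability effect of peptides: measured without MG132 proteasome inhibitor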
Description: as §1, §3

[7] = system: WT a-syn oligomers; assay: Luciferase PCA of WT a-syn oligomers; format: cell-based, human; conditions: for Oligomers %: WT oligomers, luciferase activity; for Effect on WT a-syn oligomers: luciferase PCA
Description: as §1, §2

[8] = system: A53T a-syn-CHMP2B interaction; assay: Co-immunoprecipitation: disruption of a-syn-CHMP2B interaction; format: cell-based; conditions: HEK293 co-immunoprecipitation
Description: as §4

Substance | Effect on A53T a-syn oligomers [1] | A53T a-syn oligomers as measured by luciferase activity ([1]; replicate 1) | A53T a-syn oligomers as measured by luciferase activity ([1]; replicate 2) | A53T a-syn oligomers as measured by luciferase activity ([1]; replicate 3) | Cell viability ([2]; replicate 1) | Cell viability ([2]; replicate 2) | Cell viability ([2]; replicate 3) | cell viability effect of peptides ([2]; replicate 1) | cell viability effect of peptides ([2]; replicate 2) | cell viability effect of peptides ([2]; replicate 3) | Interaction with CHMP2B [3] | Effect on A53T a-syn protein level [4] | cell viability effect of peptides ([5]; replicate 1) | cell viability effect of peptides ([5]; replicate 2) | cell viability effect of peptides ([5]; replicate 3) | Cell viability ([5]; replicate 1) | Cell viability ([5]; replicate 2) | Cell viability ([5]; replicate 3) | Effect of MIM motif peptides on cell viability in A53T a-syn expressing cells ([5]; replicate 1) | Effect of MIM motif peptides on cell viability in A53T a-syn expressing cells ([5]; replicate 2) | also measured
IPIQLKA [PDpep1, initial screen hit peptide IPIQLKA] | significant reduction in A53T a-syn oligomers | 221224 | 258154 | 261396 | 3800 | 3900 | 4100 | 12300 | 12100 | 12500 | interacted with Flag-CHMP2B | reduction in a-syn | 12800 | 14040 | 13200 | 5500 | 5200 | 5000 | 5748 | 5350 | Effect of MIM motif peptides on cell viability in A53T a-syn expressing cells ([5]; replicate 3): 5562; Cell viability ([6]; replicate 1): 3500; Cell viability ([6]; replicate 2): 3600; Cell viability ([6]; replicate 3): 3700; cell viability effect of peptides ([6]; replicate 1): 12400; cell viability effect of peptides ([6]; replicate 2): 12300; cell viability effect of peptides ([6]; replicate 3): 12500; Oligomers % ([7]; column 1): 91.6523%; Oligomers % ([7]; column 2): 79.1738%; Oligomers % ([7]; column 3): 70.9983%; Oligomers % ([7]; column 4): 79.1738%; Oligomers % ([7]; column 5): 65.4045%; Effect on WT a-syn oligomers [7]: significant reduction in a-syn oligomers
DEEIERQLKALG [PDpep1.3] | significant reduction in A53T a-syn oligomers | 222198 | 195592 | 221562 | 4900 | 4200 | 4500 | 13700 | 13400 | 13100 | interacted with Flag-CHMP2B | reduction in a-syn | 15000 | 15800 | 15200 | 8500 | 9100 | 9000 | 8764 | 8800 | Effect on cell survival/viability ([5]; A53T a-syn cells): most prominent effects on cell survival; Effect of MIM motif peptides on cell viability in A53T a-syn expressing cells ([5]; replicate 3): 8162; Cell viability ([6]; replicate 1): 5800; Cell viability ([6]; replicate 2): 5300; Cell viability ([6]; replicate 3): 6000; cell viability effect of peptides ([6]; replicate 1): 14300; cell viability effect of peptides ([6]; replicate 2): 13800; cell viability effect of peptides ([6]; replicate 3): 14100; Oligomers % ([7]; column 1): 99.8279%; Oligomers % ([7]; column 2): 83.0465%; Oligomers % ([7]; column 3): 73.1497%; Oligomers % ([7]; column 4): 78.3132%; Oligomers % ([7]; column 5): 63.6833%; Effect on WT a-syn oligomers [7]: significant reduction in a-syn oligomers; Effect on a-syn-CHMP2B interaction [8]: disrupted this a-syn-CHMP2B interaction
